Results: ChEMBL document CHEMBL3132781, “Biologically active binaphthol-scaffolded imidazolium salts” (Medchemcomm, 2014)
Active and inactive are the calls of the source. No cut-off for these calls is given here.

Legend:
[1] = tested on: Bacillus thuringiensis; test: Antibacterial activity against Bacillus thuringiensis HD73 assessed as complete inhibition of bacterial growth measured upto 24 hrs by broth dilution assay; assay type: functional; conditions: HD73, 24 h
[2] = Induction of chloride efflux in egg yolk phosphatidylcholine large unilamellar vesicles assessed as increase of lucigenin's fluorescence relative to EYPC; assay type: physicochemical
[3] = tested on: Escherichia coli; test: Antibacterial activity against Escherichia coli DH5[alpha] assessed as complete inhibition of bacterial growth measured upto 24 hrs by broth dilution assay; assay type: functional
[4] = tested on: Listeria seeligeri; test: Antibacterial activity against Listeria seeligeri ATCC 35967 assessed as complete inhibition of bacterial growth measured upto 24 hrs by broth dilution assay; assay type: functional; conditions: ATCC 35967, 24 h
[5] = tested on: Alcaligenes faecalis; test: Antibacterial activity against Alcaligenes faecalis ATCC 8750 assessed as complete inhibition of bacterial growth measured upto 24 hrs by broth dilution assay; assay type: functional; conditions: ATCC 8750, 24 h
[6] = tested on: Escherichia coli; test: Antibacterial activity against Escherichia coli SK037 with Tn10 insertion inactivated TolC at 10 uM measured upto 24 hrs by broth dilution assay; assay type: functional, organism-based
[7] = tested on: Escherichia coli; test: Antibacterial activity against Escherichia coli SK037 with Tn10 insertion inactivated TolC at 50 uM measured upto 24 hrs by broth dilution assay; assay type: functional, organism-based
[8] = tested on: HEK-293T; test: Cytotoxicity against human HEK293T cells after 24 hrs by MTT assay; assay type: cell-based
[9] = tested on: Escherichia coli; test: Antibacterial activity against Escherichia coli SK037 with Tn10 insertion inactivated TolC measured at 5 to 10 fold lower MIC within 2 hrs by broth dilution assay; assay type: functional, organism-based
[10] = tested on: Escherichia coli; test: Antibacterial activity against Escherichia coli DH5[alpha] at 50 uM measured upto 24 hrs by broth dilution assay; assay type: functional, organism-based
[11] = tested on: Escherichia coli; test: Antibacterial activity against Escherichia coli DH5[alpha] at 10 uM measured upto 24 hrs by broth dilution assay; assay type: functional, organism-based
[12] = Hemolysis in human erythrocytes upto 100 uM after 1 hr; assay type: ADME, cell-based, Erythrocyte; conditions: read-out: Activity
[13] = Induction of chloride efflux in egg yolk phosphatidylcholine large unilamellar vesicles assessed as increase of lucigenin's fluorescence at 6.25 %mol relative to EYPC; assay type: physicochemical
[14] = Hemolysis in human erythrocytes at 3 to 4 uM after 24 hrs; assay type: ADME, cell-based, Erythrocyte; conditions: read-out: Activity

| SMILES | MIC [1] [µM] | EC50 [2] | MIC [3] [µM] | MIC [4] [µM] | MIC [5] [µM] | Activity [6] | Activity [7] | IC50 [8] [µM] | Activity [9] | Activity [10] | Activity [11] | hemolysis at 1 h [12] [%] | Activity [13] [%] | hemolysis at 24 h, up to 4 µM [14] [%] |
| --- | --- | --- | --- | --- | --- | --- | --- | --- | --- | --- | --- | --- | --- | --- |
| C[n+]1ccn(Cc2cc3ccccc3c(-c3c(O)c(Cn4cc[n+](C)c4)cc4ccccc34)c2O)c1.O=S(=O)([N-]S(=O)(=O)C(F)(F)F)C(F)(F)F.O=S(=O)([N-]S(=O)(=O)C(F)(F)F)C(F)(F)F | > 100 | Not Active | > 100 | > 100 | > 100 |  |  |  |  |  |  |  |  |  |
| CCCCCCCCCCCCCCCC[n+]1ccn(Cc2cc3ccccc3c(-c3c(O)c(Cn4cc[n+](CCCCCCCCCCCCCCCC)c4)cc4ccccc34)c2O)c1.O=S(=O)([N-]S(=O)(=O)C(F)(F)F)C(F)(F)F.O=S(=O)([N-]S(=O)(=O)C(F)(F)F)C(F)(F)F | > 100 | 18.1 %molar | > 100 | > 100 | > 100 |  |  |  |  |  |  |  |  |  |
| CCCCCCCC[n+]1ccn(Cc2cc3ccccc3c(-c3c(O)c(Cn4cc[n+](CCCCCCCC)c4)cc4ccccc34)c2O)c1.O=S(=O)([N-]S(=O)(=O)C(F)(F)F)C(F)(F)F.O=S(=O)([N-]S(=O)(=O)C(F)(F)F)C(F)(F)F | 4 | 4.62 %molar | > 100 | 3 | > 100 | Active | Active | 11.7 | Active | inactive | inactive | < 10 | 68 | < 15 |
| CCCCCCCCCCCC[n+]1ccn(Cc2cc3ccccc3c(-c3c(O)c(Cn4cc[n+](CCCCCCCCCCCC)c4)cc4ccccc34)c2O)c1.O=S(=O)([N-]S(=O)(=O)C(F)(F)F)C(F)(F)F.O=S(=O)([N-]S(=O)(=O)C(F)(F)F)C(F)(F)F | 100 | 9.3 %molar | > 100 | 25 | > 100 |  |  | 9.2 |  |  |  | < 10 |  |  |
| CCCC[n+]1ccn(Cc2cc3ccccc3c(-c3c(O)c(Cn4cc[n+](CCCC)c4)cc4ccccc34)c2O)c1.O=S(=O)([N-]S(=O)(=O)C(F)(F)F)C(F)(F)F.O=S(=O)([N-]S(=O)(=O)C(F)(F)F)C(F)(F)F | > 100 | Not Active | > 100 | 30 | > 100 |  |  | 23.8 |  | inactive | inactive | < 10 |  |  |
